Test results taken from ChEMBL document CHEMBL1141988, “Bis(aminopyrrolidine)-derived ureas (APUs) as potent MCH1 receptor antagonists” (Bioorg Med Chem Lett, 2005).

Target: Melanin-concentrating hormone receptor 1 (Homo sapiens, UniProt Q99705)
Experiment: Displacement of [125I]MCH from human Melanin-concentrating hormone 1 (MCH1) receptor modified for optimal expression in HEK293 cells
Type: cell-based

Melanin-concentrating hormone receptor 1, sequence (Q99705 whole entry): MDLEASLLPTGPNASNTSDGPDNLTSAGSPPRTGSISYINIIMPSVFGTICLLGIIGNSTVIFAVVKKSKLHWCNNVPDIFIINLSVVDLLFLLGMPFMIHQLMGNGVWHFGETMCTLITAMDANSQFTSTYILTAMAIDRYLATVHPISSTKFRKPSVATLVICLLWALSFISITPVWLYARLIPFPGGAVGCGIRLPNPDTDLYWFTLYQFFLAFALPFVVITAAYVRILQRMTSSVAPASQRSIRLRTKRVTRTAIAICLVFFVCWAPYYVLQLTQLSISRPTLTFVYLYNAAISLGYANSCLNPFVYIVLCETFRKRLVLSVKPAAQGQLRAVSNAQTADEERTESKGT

Structure (SMILES)	Ki
CN(C(=O)c1ccc(-c2ccc(C(F)(F)F)cc2)cc1)C1CCN(C(=O)N(C)C2CCN(CCS(=O)(=O)N3CCCC3)C2)C1 (centres undefined)	82 nM
CN(C(=O)CCCC(=O)c1ccc(Cl)cc1)C1CCN(C(=O)N(C)C2CCN(CCCc3ccccc3)C2)C1 (centres undefined)	48 nM
CN(C(=O)c1ccc(-c2ccc(C(F)(F)F)cc2)cc1)C1CCN(C(=O)N(C)C2CCN(CCO)C2)C1 (centres undefined)	96 nM
CN1CCC(N(C)C(=O)CCCN(C)C(=O)c2ccc(-c3ccccc3)cc2)C1 (centres undefined)	142 nM

Now those with a lower Ki, led by results:

Ki	Structure (SMILES)
5.3 nM	CN(C(=O)c1ccc(Oc2ccc(F)cc2)cc1)C1CCN(C(=O)N(C)C2CCN(CCCc3ccc(Cl)cc3)C2)C1 (centres undefined)
5.5 nM	CN(C)CC1CCc2cc(NC(=O)c3ccc(-c4ccc(F)cc4)cc3)ccc2C1 (centres undefined)
7.3 nM	CN(C(=O)c1ccc(-c2ccc(C(F)(F)F)cc2)cc1)C1CCN(C(=O)N(C)C2CCN(CCCc3ccc(Cl)cc3)C2)C1 (centres undefined)
18 nM	CN(C(=O)c1ccc(-c2ccc(C(F)(F)F)cc2)cc1)C1CCN(C(=O)N(C)C2CCN(CCOc3ccc(Cl)cc3)C2)C1 (centres undefined)
14 nM	CN(C(=O)c1ccc(-c2ccc(C(F)(F)F)cc2)cc1)C1CCN(C(=O)N(C)C2CCN(CCS(=O)(=O)c3ccc(Cl)cc3)C2)C1 (centres undefined)
